# In US7312231B2, “Quinuclidine carbamate derivatives and their use as M3 antagonists” (priority 2000, dated 2007):
# Tested on: not given
# Experiment: not given
# Details: not given
row,melting point [°C],Molecule
1,120,CCCCN(C(=O)O[C@H]1C[N+]2(CCCc3ccccc3)CCC1CC2)c1ccccc1.[Br-]
2,141,C=CC[N+]12CCC(CC1)[C@@H](OC(=O)N(CCCC)c1ccccc1)C2.[Br-]
3,64,O=C(O[C@@H]1C[N+]2(CCCc3ccccc3)CCC1CC2)N(Cc1ccccc1)c1ccccc1.[Br-]
4,81,O=C(O[C@H]1C[N+]2(CCc3ccccc3)CCC1CC2)N(Cc1ccccc1)c1ccccc1.[Br-]
5,139,CCCCN(C(=O)O[C@H]1C[N+]2(CCc3ccccc3)CCC1CC2)c1ccccc1.[Br-]

row,Molecule,melting point [°C]
1,"CCCCN(C(=O)O[C@H]1C[N+]2(CC=Cc3ccccc3)CCC1CC2)c1ccccc1.[Br-] [Example 58, 3-(R)(Butylphenylcarbamoyloxy)-1-(3-phenylallyl)-1-azoniabicyclo[2.2.2]octane; bromide]",144
2,"O=C(O[C@H]1C[N+]2(CCCc3ccccc3)CCC1CC2)N(Cc1ccccc1)c1ccccc1.[Br-] [Example 31, 3-(R)(Benzylphenylcarbamoyloxy)-1-(3-phenylpropyl)-1-azoniabicyclo[2.2.2]octane; bromide]",101
3,"C=CC[N+]12CCC(CC1)[C@@H](OC(=O)N(Cc1ccccc1)c1ccccc1)C2.[Br-] [Example 6, 1-Allyl-3-(R)(benzylphenylcarbamoyloxy)-1-azoniabicyclo[2.2.2]octane; bromide]",70
4,"O=C(O[C@H]1C[N+]2(CC=Cc3ccccc3)CCC1CC2)N(Cc1ccccc1)c1ccccc1.[Br-] [Example 5, 3-(R)(Benzylphenylcarbamoyloxy)-1-(3-phenylallyl)-1-azoniabicyclo[2.2.2]octane; bromide]",129

# Biological target: T1, human muscarinic M3 receptors (Homo sapiens, UniProt P20309)
# T1 construct: expressed in transfected cells; host or cells: Chinese hamster ovary-K1 (CHO) cells, membrane preparations
# T1 sequence (P20309 whole entry): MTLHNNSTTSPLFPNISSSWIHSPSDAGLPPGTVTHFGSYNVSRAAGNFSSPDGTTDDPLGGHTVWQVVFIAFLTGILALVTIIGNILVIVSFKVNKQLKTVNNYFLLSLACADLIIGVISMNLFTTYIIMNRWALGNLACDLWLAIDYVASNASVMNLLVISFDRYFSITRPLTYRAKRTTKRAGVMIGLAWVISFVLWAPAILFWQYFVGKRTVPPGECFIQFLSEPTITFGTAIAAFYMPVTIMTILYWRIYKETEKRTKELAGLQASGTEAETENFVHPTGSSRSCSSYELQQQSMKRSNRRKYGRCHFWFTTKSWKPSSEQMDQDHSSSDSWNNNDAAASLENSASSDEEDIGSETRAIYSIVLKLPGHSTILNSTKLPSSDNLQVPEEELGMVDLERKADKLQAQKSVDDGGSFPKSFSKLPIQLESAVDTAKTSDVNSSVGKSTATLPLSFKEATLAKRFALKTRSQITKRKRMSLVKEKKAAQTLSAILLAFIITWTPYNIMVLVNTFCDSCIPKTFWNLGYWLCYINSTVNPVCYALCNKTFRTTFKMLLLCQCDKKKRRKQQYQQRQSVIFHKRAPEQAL
# Experiment: biochemical
# Format: binding
# Details: not given
# Protocol: The binding of [^3H]-NMS to human muscarinic receptors was performed according to Waelbroek et al (1990), Mol. Pharmacol., 38:267–273. Assays were carried out at 25° C. Membrane preparations from stably transfected Chinese hamster ovary-K1 cells (CHO) expressing the genes for the human muscarinic M3 receptors were used.
# For determination of IC50, membrane preparations were suspended in DPBS to a final concentration of 89 μg/ml for the M3 subtype. The membrane suspension wasincubated with the tritiated compound for 60 min. After incubation the membrane fraction was separated by filtration and the bound radioactivity determined. […] At least six concentrations were assayed in duplicate to generate individual displacement curves.
row,Molecule,IC50 [nM]
1,"CCCCCN(C(=O)O[C@H]1CN2CCC1CC2)c1ccccc1 [Example 104, Pentylphenylcarbamic acid 1-azabicyclo[2.2.2]oct-3-(R)yl ester]",19

# Same assay, conditions: [3H]-NMS displacement, membranes of CHO-K1 cells expressing human M3, 25° C., 60 min; read-out: BINDING TO RECPTOR M3 (IC50 nM)
row,Molecule,IC50 [nM]
1,"O=C(O[C@H]1C[N+]2(CCCc3cccs3)CCC1CC2)N(Cc1cccs1)c1ccccc1 [Example 90, 3-(R)(phenylthiophen-2-ylmethylcarbamoyloxy)-1-(3-thiophen-2-ylpropyl)-1-azoniabicyclo[2.2.2]octane; bromide]",9.2
2,"O=C(O[C@H]1CN2CCC1CC2)N(Cc1cccs1)c1ccccc1 [Example 82, Phenylthiophen-2-ylmethylcarbamic acid 1-azabicyclo[2.2.2]oct-3-(R)yl ester]",4.5
3,"CCCCN(C(=O)O[C@H]1C[N+]2(CC=Cc3ccccc3)CCC1CC2)c1ccccc1.[Br-] [Example 58, 3-(R)(Butylphenylcarbamoyloxy)-1-(3-phenylallyl)-1-azoniabicyclo[2.2.2]octane; bromide]",8
4,"CCCCN(C(=O)O[C@H]1C[N+]2(CCOc3ccccc3)CCC1CC2)c1ccccc1 [Example 79, 3-(R)(Butylphenylcarbamoyloxy)-1-(2-phenoxyethyl)-1-azoniabicyclo[2.2.2]octane; bromide]",14
5,"O=C(O[C@H]1C[N+]2(CCCc3cccs3)CCC1CC2)N(Cc1cccs1)Cc1cccs1 [Example 146, 3-(R)(bis-thiophen-2-ylmethylcarbamoyloxy)-1-(3-thiophen-2-ylpropyl)-1-azonia bicyclo[2.2.2]octane; bromide]",14.4
6,"O=C(O[C@H]1CN2CCC1CC2)N(Cc1ccccc1)c1ccccc1 [Example 1, Benzylphenylcarbamic acid 1-azabicyclo[2.2.2]oct-3-(R)yl ester]",5
7,"O=C(O[C@H]1C[N+]2(CCCc3ccccc3)CCC1CC2)N(Cc1cccs1)Cc1cccs1 [Example 142, 3-(R)(bis-thiophen-2-ylmethylcarbamoyloxy)-1-(3-phenylpropyl)-1-azoniabicyclo [2.2.2]octane; bromide]",17.8
8,"O=C(O[C@H]1C[N+]2(CCCc3ccccc3)CCC1CC2)N(Cc1ccccc1)c1ccccc1.[Br-] [Example 31, 3-(R)(Benzylphenylcarbamoyloxy)-1-(3-phenylpropyl)-1-azoniabicyclo[2.2.2]octane; bromide]",8
9,"C=CC[N+]12CCC(CC1)[C@@H](OC(=O)N(Cc1ccccc1)c1ccccc1)C2.[Br-] [Example 6, 1-Allyl-3-(R)(benzylphenylcarbamoyloxy)-1-azoniabicyclo[2.2.2]octane; bromide]",18
10,1-Allyl-3-(R)(phenylthiophen-2-ylmethylcarbamoyloxy)-1-azoniabicyclo [2.2.2]octane; bromide [Example 92],11.5
11,"O=C(O[C@H]1C[N+]2(CCOc3ccccc3)CCC1CC2)N(Cc1ccccc1)c1ccccc1 [Example 32, 3-(R)(Benzylphenylcarbamoyloxy)-1-(2-phenoxyethyl)-1-azoniabicyclo[2.2.21 octane; bromide]",8
12,"O=C(O[C@H]1CN2CCC1CC2)N(Cc1ccco1)c1ccccc1 [Example 153, Furan-2-ylmethylphenylcarbamic acid 1-azabicyclo[2.2.2]oct-3-(R)yl ester]",6
13,"O=C(O[C@H]1CN2CCC1CC2)N(Cc1ccco1)Cc1ccco1 [Example 156, bis-Furan-2-ylmethylcarbamic acid 1-azabicyclo[2.2.2]oct-3-(R)yl ester]",18
14,"O=C(O[C@H]1C[N+]2(CCOc3ccccc3)CCC1CC2)N(Cc1cccs1)c1ccccc1 [Example 91, 1-(2-Phenoxyethyl)-3-(R)(phenylthiophen-2-ylmethylcarbamoyloxy)-1-azonia bicyclo[2.2.2]octane; bromide]",6.8
15,3-(R)(Phenylthiophen-3-ylmethylcarbamoyloxy)-1-(2-phenoxyethyl)-1-azonia bicyclo[2.2.2]octane; bromide [Example 136],9
16,"O=C(O[C@H]1CN2CCC1CC2)N(Cc1ccsc1)c1ccccc1 [Example 126, Phenylthiophen-3-ylmethylcarbamic acid 1-azabicyclo[2.2.2]oct-3-(R)yl ester]",8.6
17,"O=C(O[C@H]1C[N+]2(CC=Cc3ccccc3)CCC1CC2)N(Cc1ccccc1)c1ccccc1.[Br-] [Example 5, 3-(R)(Benzylphenylcarbamoyloxy)-1-(3-phenylallyl)-1-azoniabicyclo[2.2.2]octane; bromide]",11.1
